In US11219898B2, “Molecular separation by diffusion using an EWOD device” (Sharp Life Science (EU) Limited, priority 2019, dated 2022):

Experiment: Diffusion of fluorescein or calcein through a droplet interface bilayer in an AM-EWOD device
Type: physicochemical
Method: An investigation of the transport of aqueous phase elements between droplets suspended in a non-aqueous supporting medium is conducted. Phospholipid stabilized water in oil droplets are dispensed within an AM-EWOD device. Such droplets are used to produce droplet interface bilayers (DIBs) by the bringing together of individual droplets within the AM-EWOD device. DIBs are used to study diffusion of a solute across the bilayer membrane, as well as to study active transport through pores or ion channels formed in the DIB. In a first experiment, diffusion of fluorescein or calcein through a bilayer is investigated. Under conditions of neutral pH, calcein, a derivative of fluorescein, is generally more polar than fluorescein. […] Thus, fluorescein may more readily diffuse through a bilayer, whereas calcein may not. Three populations of droplets are dispensed within an AM-EWOD device. A first population contains buffer, a second population contains fluorescein at 100 μM concentration, and a third population contains calcein at 100 μM concentration. Droplets containing buffer are brought into contact respectively with droplets containing fluorescein or calcein, under control of the AM-EWOD device. Fluorescence intensity is determined at time t0, t1 (30 minutes) and t2 (60 minutes), with excitation wavelength 494 nm and emission wavelength 515 nm.

Fluorescence from the buffer containing droplet after DIB formation (after 60 minutes, 100 μM dye droplet, excitation 494 nm, emission 515 nm): no detectable fluorescence
Diffusion across the bilayer (summary of results): not
Structure (SMILES): O=C(O)CN(CC(=O)O)Cc1cc2c(cc1O)Oc1cc(O)c(CN(CC(=O)O)CC(=O)O)cc1C21OC(=O)c2ccccc21 [calcein]
